SMILES strings stand for the structures.

T1 sequence (Q9Y5Y9 whole entry): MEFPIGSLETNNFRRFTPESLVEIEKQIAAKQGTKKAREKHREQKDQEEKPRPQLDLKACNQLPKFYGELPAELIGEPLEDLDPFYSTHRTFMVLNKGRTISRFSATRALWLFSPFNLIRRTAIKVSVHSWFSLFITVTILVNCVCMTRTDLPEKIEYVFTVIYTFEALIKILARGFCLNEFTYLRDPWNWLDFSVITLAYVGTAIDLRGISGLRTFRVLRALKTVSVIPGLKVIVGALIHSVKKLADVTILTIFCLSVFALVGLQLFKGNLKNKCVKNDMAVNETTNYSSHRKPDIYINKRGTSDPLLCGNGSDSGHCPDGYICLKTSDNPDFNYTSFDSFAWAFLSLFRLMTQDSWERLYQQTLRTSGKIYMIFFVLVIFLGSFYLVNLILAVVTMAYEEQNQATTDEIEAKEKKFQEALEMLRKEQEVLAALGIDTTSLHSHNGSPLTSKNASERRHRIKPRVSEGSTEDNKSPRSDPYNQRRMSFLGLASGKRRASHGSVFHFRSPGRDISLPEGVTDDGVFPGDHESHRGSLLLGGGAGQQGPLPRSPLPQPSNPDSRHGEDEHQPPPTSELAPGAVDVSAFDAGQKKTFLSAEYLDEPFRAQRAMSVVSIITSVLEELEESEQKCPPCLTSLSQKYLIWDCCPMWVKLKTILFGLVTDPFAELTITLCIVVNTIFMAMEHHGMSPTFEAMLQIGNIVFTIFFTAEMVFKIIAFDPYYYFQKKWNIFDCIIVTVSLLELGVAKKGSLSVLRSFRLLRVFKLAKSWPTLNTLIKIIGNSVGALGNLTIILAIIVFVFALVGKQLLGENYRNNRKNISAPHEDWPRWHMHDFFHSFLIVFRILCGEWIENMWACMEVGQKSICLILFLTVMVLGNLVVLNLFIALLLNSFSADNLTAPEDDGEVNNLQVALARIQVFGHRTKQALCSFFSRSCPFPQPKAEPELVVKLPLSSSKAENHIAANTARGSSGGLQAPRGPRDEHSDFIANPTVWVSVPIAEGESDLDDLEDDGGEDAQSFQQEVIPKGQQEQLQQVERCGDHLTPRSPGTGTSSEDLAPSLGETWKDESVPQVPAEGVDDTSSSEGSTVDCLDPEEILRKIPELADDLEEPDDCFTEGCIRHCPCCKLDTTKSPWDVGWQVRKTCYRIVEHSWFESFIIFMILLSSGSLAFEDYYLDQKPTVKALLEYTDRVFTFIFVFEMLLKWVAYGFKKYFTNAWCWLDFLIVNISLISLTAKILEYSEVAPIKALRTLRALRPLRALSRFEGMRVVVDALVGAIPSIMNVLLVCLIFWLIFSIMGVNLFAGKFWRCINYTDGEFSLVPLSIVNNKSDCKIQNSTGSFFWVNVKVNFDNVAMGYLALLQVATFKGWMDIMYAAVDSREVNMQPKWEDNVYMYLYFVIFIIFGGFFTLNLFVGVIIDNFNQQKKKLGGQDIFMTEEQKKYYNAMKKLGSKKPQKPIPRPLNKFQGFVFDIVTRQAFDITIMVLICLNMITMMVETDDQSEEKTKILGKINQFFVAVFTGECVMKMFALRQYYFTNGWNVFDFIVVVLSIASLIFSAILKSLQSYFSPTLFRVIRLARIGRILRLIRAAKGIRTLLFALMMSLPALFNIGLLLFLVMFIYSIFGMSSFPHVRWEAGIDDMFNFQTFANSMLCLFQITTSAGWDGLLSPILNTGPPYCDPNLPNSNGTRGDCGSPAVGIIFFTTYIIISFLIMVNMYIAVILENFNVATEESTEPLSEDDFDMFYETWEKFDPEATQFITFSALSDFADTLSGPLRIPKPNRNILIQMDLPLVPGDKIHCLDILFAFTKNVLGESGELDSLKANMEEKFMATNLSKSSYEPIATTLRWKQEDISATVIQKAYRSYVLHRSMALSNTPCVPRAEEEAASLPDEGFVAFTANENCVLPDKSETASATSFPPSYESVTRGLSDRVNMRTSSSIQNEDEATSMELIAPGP

This test concerns the target T1, human Nav1.8 (Homo sapiens, UniProt Q9Y5Y9).
T1 construct: expressed in transfected cells
Briefly: In vitro inhibition of Nav1.8, manual patch clamp on HEK293 cells stably expressing human Nav1.8. It is filed as cell-based. To be noted: HEK293, 100 nM, human Nav1.8, manual patch clamp, read-out: Inhibitory activity (inhibition/% at 100 nM concentration). As for the experimental part:
Bioactivity Test 1: In Vitro Inhibition of Nav1.8 by the Compound
By using a manual patch clamp on HEK293 cells stably expressing human Nav1.8, currents on Nav1.8 before and after administration of the compound were compared after the currents on Nav1.8 were stable, to obtain the effect of the compound on the Nav1.8 channel.
The to-be-tested compound was dissolved in DMSO to prepare a 9 mM stock solution, which was taken and dissolved in extracellular fluid at a desired concentration on the day of testing. The extracellular fluid included the following ingredients (mM): NaCl, 137; KCl, 4; CaCl2, 1.8; MgCl2, 1; HEPES, 10; glucose, 10; and pH 7.4 (NaOH titration). All reagents were purchased from Sigma (St. Louis, MO).
The cells were clamped at −80 mV and depolarized with a sustained 10 ms square wave to 10 mV to obtain a current on Nav1.8. This process was repeated every 5 seconds. A maximum current caused by the square wave was detected. After the current is stable, the to-be-tested compound (dissolved in the extracellular fluid at the desired concentration) was perfused. After the current is stable, the strength of blocking Nav1.8 by the compound was calculated based on the currents before and after perfusion of the compound. pCLAMP 10 (Molecular Devices, Union City, CA) was used. That the current is stable means that the current changes over time within a limited range.
(The patch-clamp technique gives a direct electrical read-out from membranes.)
`COc1c([C@H]2[C@H](C(=O)Nc3ccc4c(c3)C(=O)NC4)O[C@@](C)(C(F)(F)F)[C@H]2C)ccc(F)c1F` (relative stereo) [Example 1, rel-(2R,3S,4S,5R)-3-(3,4-difluoro-2-methoxyphenyl)-4,5-dimethyl-N-(3-oxoisoindolin-5-yl)-5-(trifluoromethyl)tetrahydrofuran-2-carboxamide]: the inhibition at 0.1 µM was at least 50%. To `COc1c([C@H]2[C@H](C(=O)Nc3ccc4o[nH]c(=O)c4c3)O[C@@](C)(C(F)(F)F)[C@H]2C)ccc(F)c1F` (relative stereo) [Example 5, rel-(2R,3S,4S,5R)-3-(3,4-difluoro-2-methoxyphenyl)-4,5-dimethyl-N-(3-oxo-2H-benzo[d]isoxazol-5-yl)-5-(trifluoromethyl)tetrahydrofuran-2-carboxamide] belongs at least 50%; to `COc1c([C@H]2[C@H](C(=O)Nc3ccc4c(c3)CNC4=O)O[C@@](C)(C(F)(F)F)[C@H]2C)ccc(F)c1F` (relative stereo) [Example 8, rel-(2R,3S,4S,5R)-3-(3,4-difluoro-2-methoxyphenyl)-4,5-dimethyl-N-(1-oxo-2,3-dihydro-1H-isoindol-5-yl)-5-(trifluoromethyl)tetrahydrofuran-2-carboxamide], at least 50%. Consider `COc1c([C@H]2[C@H](C(=O)Nc3ccc4c(c3)S(=O)(=O)NC4)O[C@@](C)(C(F)(F)F)[C@H]2C)ccc(F)c1F` (relative stereo) [Example 9, rel-(2R,3S,4S,5R)-3-(3,4-difluoro-2-methoxyphenyl)-N-(1,1-dioxo-2,3-dihydrobenzo[d]isothiazol-6-yl)-4,5-dimethyl-5-(trifluoromethyl)tetrahydrofuran-2-carboxamide], for which the inhibition at 0.1 µM is at least 50%. Regarding `COc1c([C@H]2[C@H](C(=O)Nc3ccc4c(c3)C(=O)NC4=O)O[C@@](C)(C(F)(F)F)[C@H]2C)ccc(F)c1F` (relative stereo) [Example 10, rel-(2R,3S,4S,5R)-3-(3,4-difluoro-2-methoxyphenyl)-N-(1,3-dioxo-2,3-dihydro-1H-isoindol-5-yl)-4,5-dimethyl-5-(trifluoromethyl)tetrahydrofuran-2-carboxamide], the inhibition at 0.1 µM is at least 50%. To `COc1c([C@H]2[C@H](C(=O)Nc3ccc4c(=O)[nH][nH]c(=O)c4c3)O[C@@](C)(C(F)(F)F)[C@H]2C)ccc(F)c1F` (relative stereo) [Example 12] belongs at least 50%.

With `COc1c([C@H]2[C@H](C(=O)Nc3ccc4c(c3)C(=O)OOC4N)O[C@@](C)(C(F)(F)F)[C@H]2C)ccc(F)c1F` (relative stereo) [Example 13, rel-(2R,3S,4S,5R)—N-(1-amino-4-oxo-3H-benzo[2,1-d][1,2]dioxine-6-yl)-3-(3,4-difluoro-2-methoxyphenyl)-4,5-dimethyl-5-(trifluoromethyl)tetrahydrofuran-2-carboxamide], the inhibition at 0.1 µM was at least 50%. To `COc1c([C@H]2[C@H](C(=O)Nc3cc[n+](C)c(C(N)=O)c3)O[C@@](C)(C(F)(F)F)[C@H]2C)ccc(F)c1F` (relative stereo) [Example 16, rel-2-carbamoyl-4-((2R,3S,4S,5R)-3-(3,4-difluoro-2-methoxyphenyl)-4,5-dimethyl-5-(trifluoromethyl)tetrahydrofuran-2-carboxamido)-1-methylpyridin-1-onium iodide] belongs at least 50%. To `COc1c([C@H]2[C@H](C(=O)Nc3ccnc(C(N)=S)c3)O[C@@](C)(C(F)(F)F)[C@H]2C)ccc(F)c1F` (relative stereo) [Example 22, rel-(2R,3S,4S,5R)—N-[2-(aminothiomethylidene)pyridin-4-yl]-3-(3,4-difluoro-2-methoxyphenyl)-4,5-dimethyl-5-(trifluoromethyl)tetrahydrofuran-2-carboxamide] belongs at least 50%. Turning to `COc1c([C@H]2[C@H](C(=O)Nc3cc(F)[nH]c(=O)c3)O[C@@](C)(C(F)(F)F)[C@H]2C)ccc(F)c1F` (relative stereo) [Example 24, rel-(2R,3S,4S,5R)-3-(3,4-difluoro-2-methoxyphenyl)-N-(6-fluoro-2-oxo-1H-pyridin-4-yl)-4,5-dimethyl-5-(trifluoromethyl)tetrahydrofuran-2-carboxamide], the inhibition at 0.1 µM is at least 50%.

Turning to `COc1c([C@H]2[C@H](C(=O)Nc3ccc(C#N)c(C(N)=O)c3)O[C@@](C)(C(F)(F)F)[C@H]2C)ccc(F)c1F` (relative stereo) [Example 25, rel-(2R,3S,4S,5R)—N-(3-carbamoyl-4-cyanophenyl)-3-(3,4-difluoro-2-methoxyphenyl)-4,5-dimethyl-5-(trifluoromethyl)tetrahydrofuran-2-carboxamide], the inhibition at 0.1 µM is at least 50%. In the case of `COc1c([C@H]2[C@H](C(=O)Nc3ccc(=O)[nH]n3)O[C@@](C)(C(F)(F)F)[C@H]2C)ccc(F)c1F` (relative stereo) [Example 27, rel-(2R,3S,4S,5R)-3-(3,4-difluoro-2-methoxyphenyl)-4,5-dimethyl-N-(6-oxo-1H-1,2-dioxine-3-yl)-5-(trifluoromethyl)tetrahydrofuran-2-carboxamide] it was at least 50%; in that of `COc1c([C@H]2[C@H](C(=O)Nc3ccc(C(N)=O)c(C(N)=O)c3)O[C@@](C)(C(F)(F)F)[C@H]2C)ccc(F)c1F` (relative stereo) [Example 30, rel-(2R,3S,4S,5R)-4-({[3-(3,4-difluoro-2-methoxyphenyl)-4,5-dimethyl-5-(trifluoromethyl)tetrahydrofuran-2-yl]carbonyl}amino)benzene-1,2-dicarboxamide], at least 50%.

`COc1c([C@H]2[C@H](C(=O)Nc3ccnc(C(=O)N4CCCO4)c3)O[C@@](C)(C(F)(F)F)[C@H]2C)ccc(F)c1F` (relative stereo) [Example 32, rel-(2R,3S,4S,5R)-3-(3,4-difluoro-2-methoxyphenyl)-4,5-dimethyl-N-[2-(tetrahydroisoxazol-2-ylcarbonyl)pyridin-4-yl]-5-(trifluoromethyl)tetrahydrofuran-2-carboxamide]: the inhibition at 0.1 µM was at least 50%. With `COc1c([C@H]2C(C(=O)Nc3ccc4c(c3)S(=O)(=O)NC4=O)O[C@@](C)(C(F)(F)F)[C@H]2C)ccc(F)c1F` (relative stereo) [Example 79, rel-(2R,3S,4S,5)-3-(3,4-difluoro-2-methoxyphenyl)-4,5-dimethyl-5-(trifluoromethyl)-N-(1,1,3-trioxo-2,3-dihydro-1λ6-benzo[d][1,2]thiazol-6-yl)tetrahydrofuran-2-carboxamide], the inhibition at 0.1 µM is at least 50%.

For the compound `CCNS(=O)(=O)c1cc(NC(=O)[C@@H]2O[C@@](C)(C(F)(F)F)[C@@H](C)[C@H]2c2ccc(F)c(F)c2OC)ccn1` (relative stereo) [Example 83, rel-(2R,3S,4S,5R)-3-(3,4-difluoro-2-methoxyphenyl)-N-(2-(N-ethylsulfamoyl)pyridin-4-yl)-4,5-dimethyl-5-(trifluoromethyl)tetrahydrofuran-2-carboxamide], the inhibition at 0.1 µM is at least 50%.

In the case of `COc1c(C2[C@H](C(=O)Nc3ccnc(S(=O)(=O)NCC(F)(F)F)c3)O[C@@](C)(C(F)(F)F)[C@H]2C)ccc(F)c1F` (relative stereo) [Example 84, rel-(2R,3S,4S,5R)-3-(3,4-difluoro-2-methoxyphenyl)-4,5-dimethyl-N-(2-(N-(2,2,2-trifluoroethyl)sulfamoyl)pyridin-4-yl)-5-trifluoromethyl tetrahydrofuran-2-carboxamide], the inhibition at 0.1 µM was at least 50%.

As to `CNS(=O)(=O)c1cc(NC(=O)[C@@H]2O[C@]3(C(F)(F)F)CC[C@]3(C)[C@H]2c2ccc(F)c(F)c2OC)ccn1` (relative stereo) [Example 88, rel-(1R,3R,4S,5R)-4-(3,4-difluoro-2-methoxyphenyl)-5-methyl-N-(2-(N-methylsulfamoyl)pyridin-4-yl)-1-(trifluoromethyl)-2-oxabicyclo[3.2.0]heptane-3-carboxamide], the inhibition at 0.1 µM was at least 50%. `COc1c([C@H]2[C@H](C(=O)Nc3ccnc(C(O)CF)c3)O[C@]3(C(F)(F)F)CC[C@]23C)ccc(F)c1F` (relative stereo) [Example 89, rel-(1R,3R,4S,5R)-4-(3,4-difluoro-2-methoxyphenyl)-N-(2-(2-fluoro-1-hydroxyethyl)pyridin-4-yl)-5-methyl-1-(trifluoromethyl)-2-oxabicyclo[3.2.0]heptane-3-carboxamide]: the inhibition at 0.1 µM is at least 50%. To `COc1c([C@H]2[C@H](C(=O)Nc3ccc(F)c(S(=O)(=O)Nc4cscn4)c3)O[C@]3(C(F)(F)F)CC[C@]23C)ccc(F)c1F` (relative stereo) [Example 92, rel-(1R,3R,4S,5R)-4-(3,4-difluoro-2-methoxyphenyl)-N-(4-fluoro-3-(N-(thiazol-4-yl)aminosulfonyl)phenyl)-5-methyl-1-trifluoromethyl-2-oxabicyclo[3.2.0]heptane-3-carboxamide] belongs at least 50%; to `COc1c([C@H]2C(C(=O)Nc3ccnc(S(C)(=N)=O)c3)O[C@]3(C(F)(F)F)CC[C@]23C)ccc(F)c1F` (relative stereo) [Example 93, rel-(1R,3R,4S,5R)-4-(3,4-difluoro-2-methoxyphenyl)-5-methyl-N-(2-(S-methylsulfoximine)pyridin-4-yl)-1-(trifluoromethyl)-2-oxabicyclo[3.2.0]heptane-3-carboxamide], at least 50%.
